{"source": "patent US6011015A", "about": "“Angiotensin II for improving fertilization” (Queen Mary & Westfield College, priority 1994, dated 2000)", "format_in_all_cases": "cell-based", "key": {"[1]": {"tested_on": "Human sperm", "test": "Percentage motility of human sperm, counted from video recordings in a Makler chamber", "protocol": "Human sperm sample were obtained from 12 volunteers and patients attending the Newham Hospital assisted fertility clinic. Samples were suspended in modified minimum essential medium with Earle's salts (MEM) and glutamine and viewed in a Makler chamber using an Olympus inverted microscope fitted with an Olympus ARTF-2 video camera. Fields were recorded on video tape and percentage motility evaluated at 1 min and 5 min. After mixing with MEM alone (unstimulated controls) or with MEM containing 1 nmole/litre angiotensin II amide.\nIn practice, rigid use of this definition was rarely necessary as sperm were either completely immotile or progressed freely.\nA series of six sperm samples, obtained from the same source as Example 1, were mixed either with unmodified MEM, or MEM containing DuP-753 (1 nmole/l).\nPercentage motility was estimated in the same way as in Example 1.\n(§1) Effect of Angiotensin II on Sperm Velocity Sperm samples were obtained from the same source as Example 1. One series of samples was kept as controls. To a second series Angiotensin II amide (10 nmole/l) was added. A third series was treated with monoclonal antibody to the AT1, receptor before angiotensin was added.\nSperm samples were obtained from the same source as Example 1. One series of samples was kept as controls. A second series was exposed to angiotensin II (1 μmole/l) for five minutes. A third series was exposed to angiotensin II (1 μmole/l) for 5 minutes and then DuP-753 (1 μmole/l) was added.\nThe percentage of motile sperm was measured using the same method as was used in Example 1."}, "[2]": {"tested_on": "Human sperm", "test": "Forward progressive sperm velocity, timed manually across the Makler chamber grid", "conditions": "Angiotensin II amide (10 nmole/l); FIG. 3(a)", "protocol": "as §1\nVelocity was measured by timing forwardly progressive sperm traversing the grid on the Makler Chamber and timing them manually."}, "[3]": {"tested_on": "Human sperm", "test": "Sperm motility by computer system (VCL and ALH)", "conditions": "angiotensin II amide (1 nmole/l) versus unstimulated controls, over 30 minutes", "protocol": "Sperm samples were obtained from the same source as Example 1. One series of samples was kept as controls. TO a second series angiotensin II amide (1 nmole/l) was added.\nSperm motility was assayed by using a computer system which measures different aspects of sperm motility, namely curvilinear velocity (VCL) and amplitude of lateral head displacement (ALH)."}}, "note": "Where a name gives a salt, the structure may show the parent alone.", "data": [{"molecule": "angiotensin II (DRVYIHPF; Angiotensin-2; UniProt P01019 25-32, looked up) [octapeptide hormone of the renin-angiotensin system]", "values": [{"measurement": "percentage motility after 5 minutes compared with percentage motility after 1 minute", "setting": "[1]; MEM containing 1 nmole/litre angiotensin II amide, 12 human sperm samples, FIG. 1(b)", "value": "significantly different"}, {"measurement": "percentage of sperm which were motile after 5 minutes compared with the controls", "setting": "[1]; angiotensin II (1 μmole/l) for five minutes, in most samples, FIG. 4", "value": "enhanced"}, {"measurement": "forward progressive velocity compared with the untreated controls", "setting": "[2]", "value": "significantly stimulated"}]}, {"molecule": "CCCCc1nc(Cl)c(CO)n1Cc1ccc(-c2ccccc2-c2nn[nH]n2)cc1", "note": "[DuP-753, 2-n-butyl-4-chloro-5-hydroxymethyl-1-[(2'-(1H-tetrazol-5-yl)biphenyl-4-yl)methyl] imidazole, potassium salt, reference compound]", "values": [{"measurement": "percentage motility relative to the untreated controls", "setting": "[1]; MEM containing DuP-753 (1 nmole/l), six sperm samples, FIG. 2", "value": "significantly decreased"}, {"measurement": "effect on the angiotensin II enhancement of the percentage of motile sperm", "setting": "[1]; angiotensin II (1 μmole/l) for 5 minutes, then DuP-753 (1 μmole/l) added, FIG. 4", "value": "generally reduced"}]}, {"molecule": "angiotensin II amide", "values": [{"measurement": "curvilinear velocity (VCL)", "setting": "[3]; FIGS. 6 and 8", "value": "stimulates"}, {"measurement": "amplitude of lateral head displacement (ALH)", "setting": "[3]; FIGS. 7 and 8", "value": "stimulates"}]}]}
